This note sets out measurements from patent US20240246950A1, “Anilino-Pyrazole Derivatives, Compositions and Methods Thereof” (Ensem Therapeutics, priority 2022, published 2024).

Test [1] has as its system TOV21G. The experiment in a line: Cell proliferation (CyQUANT) TOV21G. It counts as cell-based. To be noted: Homo sapiens, 168 h, 7 days, read-out: Anti-proliferation assay: IC50 (nM) [Cell Line: TOV21G]. On the procedure:
(§1) Cancer cell lines, namely, OVCAR3, TOV21G were seeded onto 96 well cell culture plates at a density of 2500, 1000 or 3000 cells/well, respectively and cultured overnight. Cells treated with test compounds at 3-fold dose titration for 7 days at maximum final DMSO concentration of 0.01%. The CyQUANT® Cell Proliferation Assay, a highly sensitive fluorescence-based method for quantifying cells and assessing cell proliferation and cytotoxicity was employed, following manufacturer's procedure (ThermnoFisher, Cataloge #C35012). Plates were scanned with a laser-based Acumen Cellistra instrument by TTP LabTech at Ex/Em 480/520 nm. % Inhibition is calculated based on DMSO control wells on the same plate (ie, DMSO wells have 100% growth and 0% growth inhibition).

The target of test [2] is CDK2/CycE1 (Homo sapiens, UniProt P24941). The experiment in a line: In vitro kinase TR-FRET assay CDK2/CycE1. The class given is biochemical. The settings on record: enzyme 0.6 nM, ATP 82 μM, read-out: CDK2 cyclinE1 activity assay: IC50. On the procedure: (§2) In vitro kinase TR-FRET assays: CDK2/CycA2, CDK2/CycE1, CDK1/cyclinB and GSK3β
(§3) The test compounds were prepared as 10 mM stock solution in 100% DMSO. The stock solution was then serially diluted 3-fold in 100% DMSO to 10 concentrations. 200 nL of each diluted compound solution was transferred to 384-well plate in duplicate. To each well, 5 uL of enzyme and ATP mixture solution containing enzyme CDK2/CycA2, CDK2/CycE1, CDK1/cyclinB, or GSK30 (final concentrations 3 nM, 0.6 nM, 0.3 nM, 0.6 nM, respectively) and ATP (final concentrations 27 μM, 82 μM, 56 μM, 7.6 μM, respectively) in the assay buffer (50 mM HEPES, pH7.5, 10 mM MgCl2, 1 mM DTT, 0.01% BSA, 0.01% Triton X-100). For negative control, 5 uL of assay buffer was added instead. The plate was incubated at room temperature for 10 min. 5 uL of peptide solution containing ULight-4E-BP1 peptide (final concentrations 50 nM) in the assay buffer was subsequently added into each well to initiate the reaction. By incubation at room temperature for 1 hour, 10 uL of 2 nM Eu-anti-phospho-4E BP1 antibody was then added for detection. After one hour incubation at room temperature, all samples were subjected to read the TR-FRET signal on Envision with excitation at 340 nm and emission fluorescence at 615 nm and 665 nm. IC50 values were then calculated by plotting dose-response curves and then using the XLfit application in Excel software.
Background: Time-resolved FRET reads energy transfer from a long-lived donor to a nearby acceptor.

The target of test [3] is CDK2/CycA2 (Homo sapiens, UniProt P24941). The experiment in a line: In vitro kinase TR-FRET assay CDK2/CycA2. It counts as biochemical. The settings on record: enzyme 3 nM, ATP 27 μM, read-out: CDK2 cyclinA2 activity assay: IC50. The procedure:
as §2, §3

Test [4] concerns OVCAR3. The experiment in a line: Cell proliferation (CyQUANT) OVCAR3. The class given is cell-based. The settings on record: Homo sapiens, OVCAR-3, 168 h, OVCAR3, 7 days, read-out: Anti-proliferation assay: IC50 (nM) [Cell Line: OVCAR3]. The procedure: as §1
Test [5] concerns the target GSK3β (Homo sapiens, UniProt P49841). The experiment in a line: In vitro kinase TR-FRET assay GSK3β. The class given is biochemical. The settings on record: enzyme 0.6 nM, ATP 7.6 μM. On the procedure: as §2, §3
Test [6] concerns the target CDK1/cyclinB (Homo sapiens, UniProt P06493). The experiment in a line: In vitro kinase TR-FRET assay CDK1/cyclinB. It counts as biochemical. The settings on record: enzyme 0.3 nM, ATP 56 μM. On the procedure:
as §2, §3

The structures appear in SMILES notation. Bounds are passed on as bounds.

CDK1/cyclinB, sequence (P06493 whole entry): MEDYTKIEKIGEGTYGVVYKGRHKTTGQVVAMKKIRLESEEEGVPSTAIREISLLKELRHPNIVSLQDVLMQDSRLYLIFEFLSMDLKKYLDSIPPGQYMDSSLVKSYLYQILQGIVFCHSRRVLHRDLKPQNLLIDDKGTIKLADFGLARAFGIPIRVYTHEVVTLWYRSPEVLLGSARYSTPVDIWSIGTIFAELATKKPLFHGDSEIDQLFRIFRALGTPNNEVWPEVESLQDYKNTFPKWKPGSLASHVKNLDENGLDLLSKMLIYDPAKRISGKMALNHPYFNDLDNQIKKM
CDK1/cyclinB, sequence (P14635 whole entry partner): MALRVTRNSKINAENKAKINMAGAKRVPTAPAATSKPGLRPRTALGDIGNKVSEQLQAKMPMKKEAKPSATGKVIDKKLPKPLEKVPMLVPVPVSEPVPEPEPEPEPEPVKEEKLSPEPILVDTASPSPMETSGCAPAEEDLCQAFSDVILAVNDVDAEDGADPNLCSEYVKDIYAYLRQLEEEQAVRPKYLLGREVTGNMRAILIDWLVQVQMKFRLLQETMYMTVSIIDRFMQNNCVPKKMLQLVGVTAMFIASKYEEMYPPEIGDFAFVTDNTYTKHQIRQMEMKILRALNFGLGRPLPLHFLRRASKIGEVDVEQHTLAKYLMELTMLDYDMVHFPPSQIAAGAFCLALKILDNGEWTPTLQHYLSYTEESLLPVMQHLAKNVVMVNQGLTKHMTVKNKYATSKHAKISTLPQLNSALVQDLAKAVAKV
GSK3β, sequence (P49841 whole entry, species assumed): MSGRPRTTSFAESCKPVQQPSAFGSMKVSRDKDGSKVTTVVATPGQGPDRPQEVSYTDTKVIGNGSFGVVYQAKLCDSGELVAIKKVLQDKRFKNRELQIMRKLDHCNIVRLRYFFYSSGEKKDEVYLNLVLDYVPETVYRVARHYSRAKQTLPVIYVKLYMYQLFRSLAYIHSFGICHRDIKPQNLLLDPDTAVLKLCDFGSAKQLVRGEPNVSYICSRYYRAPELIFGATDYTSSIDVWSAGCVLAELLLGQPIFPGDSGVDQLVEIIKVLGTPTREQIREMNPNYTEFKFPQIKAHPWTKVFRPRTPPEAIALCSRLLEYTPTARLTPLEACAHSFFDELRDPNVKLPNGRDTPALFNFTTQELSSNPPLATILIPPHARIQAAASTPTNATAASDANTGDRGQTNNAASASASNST

As to `CC(C)NC(=O)O[C@@H]1CC[C@H](c2cc(Nc3ccc4c(c3)CS(=O)(=O)C4)n[nH]2)C1` [Example 22, (1R,3S)-3-(3-((2,2-dioxido-1,3-dihydrobenzo[c]thiophen-5-yl)amino)-1H-pyrazol-5-yl)cyclopentyl isopropylcarbamate], the IC50 was not above 500 nM in test [1]; less than 50 nM in test [2]; less than 50 nM in test [3]; not above 500 nM in test [4]; 500 to 1000 nM in test [5]; less than 50 nM in test [6].
For `CC(C)NC(=O)O[C@@H]1CC[C@H](c2cc(Nc3ccc4c(c3)CCC4=O)n[nH]2)C1` [Example 25, (1R,3S)-3-{5-[(1-oxo-2,3-dihydro-1H-inden-5-yl)amino]-2H-pyrazol-3-yl}cyclopentyl (prop-2-ylamino)methanoate], the IC50 in test [1] was not below 1000 nM; in test [2], less than 50 nM; in test [3] it was less than 50 nM; in test [4] it was not above 500 nM; in test [5] it was 50 to 500 nM; in test [6], 50 to 500 nM.
In the case of `CC(C)NC(=O)O[C@@H]1CC[C@H](c2cc(Nc3ccc4c(c3)CCCS4(=O)=O)n[nH]2)C1` [Example 26, (1R,3S)-3-(3-((1,1-dioxidothiochroman-6-yl)amino)-1H-pyrazol-5-yl)cyclopentyl isopropylcarbamate], the IC50 in test [1] was not below 1000 nM; in test [2] it was less than 50 nM; in test [3] it was less than 50 nM; in test [4], not above 500 nM; in test [5] it was 50 to 500 nM; in test [6], 50 to 500 nM.
For `CC(C)NC(=O)O[C@H]1CC[C@@H](c2cc(Nc3ccc4c(c3)S(=O)(=O)CC4)n[nH]2)CC1` [Example 27, (1s,4s)-4-{5-[(1,1-dioxo-2,3-dihydro-1λ^6-benzo[b]thiophen-6-yl)amino]-2H-pyrazol-3-yl}cyclohexyl (prop-2-ylamino)methanoate], the IC50 was not below 1000 nM in test [1]; less than 50 nM in test [2]; less than 50 nM in test [3]; not below 1000 nM in test [4]; more than 1000 nM in test [5]; 50 to 500 nM in test [6].
For the compound `CC(C)NC(=O)O[C@H]1C[C@@H](c2cc(Nc3ccc4c(c3)CS(=O)(=O)C4)n[nH]2)C1` [Example 28, (1s,3s)-3-(3-((2,2-dioxido-1,3-dihydrobenzo[c]thiophen-5-yl)amino)-1H-pyrazol-5-yl)cyclobutyl isopropylcarbamate], the IC50 was not above 500 nM in test [1]; less than 50 nM in test [2]; less than 50 nM in test [3]; not above 500 nM in test [4]; 50 to 500 nM in test [5]; less than 50 nM in test [6].
Turning to `CC(C)NC(=O)O[C@@H]1CC[C@H](c2cc(Nc3ccc4c(c3)CCC4C#N)n[nH]2)C1` (stereo partly drawn) [Example 29, (1R,3S)-3-{5-[(1-cyano-2,3-dihydro-1H-inden-5-yl)amino]-2H-pyrazol-3-yl}cyclopentyl (prop-2-ylamino)methanoate], the IC50 was not below 1000 nM in test [1]; less than 50 nM in test [2]; less than 50 nM in test [3]; 500 to 1000 nM in test [4]; 50 to 500 nM in test [5]; 50 to 500 nM in test [6].
Regarding `CC(C)NC(=O)O[C@@H]1CC[C@H](c2cc(Nc3ccc4c(c3)CCC(=O)N4)[nH]n2)C1` [Example 30, (1R,3S)-3-{5-[(2-oxo-1,2,3,4-tetrahydroquinolin-6-yl)amino]-1H-pyrazol-3-yl}cyclopentyl (prop-2-ylamino)methanoate], the IC50 in test [1] is not below 1000 nM; in test [2], less than 50 nM; in test [3] it was less than 50 nM; in test [4], 500 to 1000 nM; in test [5] it was more than 1000 nM; in test [6] it was 50 to 500 nM.
Take `CC(C)NC(=O)O[C@@H]1CC[C@H](c2cc(Nc3ccc4c(c3)C(C#N)CC4)n[nH]2)C1` (stereo partly drawn) [Example 31, (1R,3S)-3-{5-[(3-cyano-2,3-dihydro-1H-inden-5-yl)amino]-2H-pyrazol-3-yl}cyclopentyl (prop-2-ylamino)methanoate]: the IC50 was not above 500 nM in test [1]; less than 50 nM in test [2]; less than 50 nM in test [3]; not above 500 nM in test [4]; 50 to 500 nM in test [5]; 50 to 500 nM in test [6].
Consider `CC(C)NC(=O)O[C@@H]1CC[C@H](c2cc(Nc3ccc4c(c3)CC(F)(F)C4)n[nH]2)C1` [Example 32, (1R,3S)-3-(3-((2,2-difluoro-2,3-dihydro-1H-inden-5-yl)amino)-1H-pyrazol-5-yl)cyclopentyl isopropylcarbamate], for which the IC50 in test [1] was not below 1000 nM; in test [2], less than 50 nM; in test [3], less than 50 nM; in test [4], not above 500 nM; in test [5], 500 to 1000 nM; in test [6], 50 to 500 nM.
`CC(C)NC(=O)O[C@H]1CC[C@@H](c2cc(Nc3ccc4c(c3)CS(=O)(=O)C4)n[nH]2)CC1` [Example 33, (1s,4s)-4-(3-((2,2-dioxido-1,3-dihydrobenzo[c]thiophen-5-yl)amino)-1H-pyrazol-5-yl)cyclohexyl isopropylcarbamate]: the IC50 in test [1] was not above 500 nM; in test [2], less than 50 nM; in test [3], less than 50 nM; in test [4], not above 500 nM; in test [5] it was more than 1000 nM; in test [6], less than 50 nM.
As for `CC(C)NC(=O)O[C@@H]1CC[C@H](c2cc(Nc3ccc4c(c3)oc(=O)n4C)n[nH]2)C1` [Example 34, (1R,3S)-3-{5-[(3-methyl-2-oxobenzo[d][1,3]oxazol-6-yl)amino]-2H-pyrazol-3-yl}cyclopentyl (prop-2-ylamino)methanoate], the IC50 in test [1] was not below 1000 nM; in test [2], less than 50 nM; in test [3] it was less than 50 nM; in test [4], 500 to 1000 nM; in test [5] it was 500 to 1000 nM; in test [6], 50 to 500 nM.
Consider `CC(C)NC(=O)O[C@@H]1CC[C@H](c2cc(Nc3cccc4c3CCS4(=O)=O)n[nH]2)C1` [Example 36, (1R,3S)-3-(3-((1,1-dioxido-2,3-dihydrobenzo[b]thiophen-4-yl)amino)-1H-pyrazol-5-yl)cyclopentyl isopropylcarbamate], for which the IC50 in test [1] is not above 500 nM; in test [2], less than 50 nM; in test [3], less than 50 nM; in test [4], not above 500 nM; in test [5] it was 50 to 500 nM; in test [6] it was 50 to 500 nM.
Turning to `CC(C)NC(=O)O[C@H]1CC[C@@H](c2cc(Nc3ccc4c(c3)S(=O)(=O)NC4)n[nH]2)CC1` [Example 37, (1s,4s)-4-(3-((1,1-dioxido-2,3-dihydrobenzo[d]isothiazol-6-yl)amino)-1H-pyrazol-5-yl)cyclohexyl isopropylcarbamate], the IC50 is not below 1000 nM in test [1]; less than 50 nM in test [2]; less than 50 nM in test [3]; not below 1000 nM in test [4]; more than 1000 nM in test [5]; 50 to 500 nM in test [6].
On to `CC(C)NC(=O)O[C@@H]1CC[C@H](c2cc(Nc3ccc4c(c3)NS(=O)(=O)C4)n[nH]2)C1` [Example 38, (1R,3S)-3-(3-((2,2-dioxido-1,3-dihydrobenzo[c]isothiazol-6-yl)amino)-1H-pyrazol-5-yl)cyclopentyl isopropylcarbamate], for which the IC50 is not below 1000 nM in test [1]; less than 50 nM in test [2]; less than 50 nM in test [3]; not above 500 nM in test [4]; more than 1000 nM in test [5]; less than 50 nM in test [6].
`CC(C)NC(=O)O[C@@H]1CC[C@H](c2cc(Nc3cccc4c3CS(=O)(=O)C4)n[nH]2)C1` [Example 40, (1R,3S)-3-{5-[(2,2-dioxo-1,3-dihydro-2λ^6-benzo[c]thiophen-4-yl)amino]-2H-pyrazol-3-yl}cyclopentyl (prop-2-ylamino)methanoate]: the IC50 in test [1] is not below 1000 nM; in test [2], less than 50 nM; in test [3], less than 50 nM; in test [4], not above 500 nM; in test [5] it was more than 1000 nM; in test [6] it was 50 to 500 nM.
